The test concerns MV4-11. As to the kind of experiment: 7-day proliferation assay (WST-8), cell growth inhibition. It is filed as cell-based. The conditions noted are these: MV4-11 cells, 7 days. As for the experimental part: The effect of representative Compounds of the Disclosure on cell viability was determined in a 7-day proliferation assay. Cells were maintained in the appropriate culture medium with 10% FBS at 37° C. and an atmosphere of 5% CO2.
Cells were seeded in 96-well flat bottom (Corning COSTAR, Corning, NY, cat#3595) at a density of 2,000-3,000 cells/well in 100 μl of culture medium. Compounds were serially diluted in the appropriate medium, and […] the diluted compounds were added to the appropriate wells of the cell plate. After the addition of compounds, the cells were incubated at 37° C. in an atmosphere of 5% CO2 for 7 days. Cell viability was determined using the WST (2-(2-methoxy-4-nitrophenyl)-3-(4-nitrophenyl)-5-(2,4-disulfophenyl)-2H-tetrazolium, monosodium salt) Cell Counting-8 Kit (Dojindo Molecular Technologies, Inc., Rockville, Md.) according to the manufacturers' instructions.
WST-8 reagent was added to each well at a final concentration of 10% (v/v), and then the plates were incubated at 37° C. for 1-2 hours for color development. The absorbance was measured at 450 nm using a SPECTRAmax PLUS plate reader (Molecular Devices, Sunnyvale, Calif.). The readings were normalized to the DMSO-treated cells and the half maximal inhibitory concentration (IC50) was calculated by nonlinear regression (four parameters sigmoid fitted with variable slope, least squares fit, and no constraint) analysis using the GraphPad Prism 5 software (GraphPad Software, La Jolla, Calif.).
A general note: Tetrazolium dyes change colour on reduction, which living cells bring about.

A value given as a limit tells only on which side of the number the result lay.

Broadly, the IC50 is the concentration at which inhibition is half-maximal. A lower IC50 goes with greater potency.

As for `C=CC(=O)Nc1cccc(S(=O)(=O)c2ccc(N3CC(CN4CCC([C@@](CN5CCC5)(c5cccc(F)c5)[C@H]5CCC[C@@H]5NC(=O)OC)CC4)C3)c(F)c2)c1` [compound 73], for the setting “Homo sapiens, MV4-11, 168 h”, the IC50 was below 10 nM. In turn, `C=CC(=O)Nc1cc(S(=O)(=O)c2ccc(N3CC(CN4CCC([C@@](CN5CCC5)(c5cccc(F)c5)[C@H]5CCC[C@@H]5NC(=O)OC)CC4)C3)cc2)ccc1N(C)CCN(C)C` [compound 74] gave an IC50 (Homo sapiens, MV4-11, 168 h) below 50 nM. Take `C=CC(=O)N(C)c1cccc(S(=O)(=O)c2ccc(N3CC(CN4CCC([C@@](CN5CCC5)(c5cccc(F)c5)[C@H]5CCC[C@@H]5NC(=O)OC)CC4)C3)cc2)c1` [compound 77]: the IC50 (Homo sapiens, MV4-11, 168 h) is below 50 nM.

For the setting “Homo sapiens, MV4-11, 168 h”, `C=CC(=O)Nc1cc(C(F)(F)F)cc(S(=O)(=O)c2ccc(N3CC(CN4CCC([C@@](CN5CCC5)(c5cccc(F)c5)[C@H]5CCC[C@@H]5NC(=O)OC)CC4)C3)cc2)c1` [compound 78] came in with an IC50 below 10 nM. Same read-out and setting: then `C=CC(=O)Nc1cncc(S(=O)(=O)c2ccc(N3CC(CN4CCC([C@@](CN5CCC5)(c5cccc(F)c5)[C@H]5CCC[C@@H]5NC(=O)OC)CC4)C3)cc2)c1` [compound 79], with below 50 nM.

As for `C=CC(=O)Nc1cc(S(=O)(=O)c2ccc(N3CC(CN4CCC([C@@](CN5CCC5)(c5cccc(F)c5)[C@H]5CCC[C@@H]5NC(=O)OC)CC4)C3)cc2)ccc1C(F)(F)F` [compound 81], where the note is “Homo sapiens, MV4-11, 168 h”, the IC50 was below 50 nM. Same read-out and setting: under `C=CC(=O)Nc1cncc(S(=O)(=O)c2ccc(N3CC(F)(CN4CCC([C@@](CN5CCC5)(c5cccc(F)c5)[C@H]5CCC[C@@H]5NC(=O)OC)CC4)C3)c(F)c2)c1` [compound 84] stands below 50 nM. `C=CC(=O)Nc1ccnc(S(=O)(=O)c2ccc(N3CC(F)(CN4CCC([C@@](CN5CCC5)(c5cccc(F)c5)[C@H]5CCC[C@@H]5NC(=O)OC)CC4)C3)c(F)c2)c1` [compound 87] gave an IC50 (Homo sapiens, MV4-11, 168 h) below 500 nM. As to `C=CC(=O)Nc1cc(F)cc(S(=O)(=O)c2ccc(N3CC(F)(CN4CCC([C@@](CN5CCC5)(c5cccc(F)c5)[C@H]5CCC[C@@H]5NC(=O)OC)CC4)C3)c(F)c2)c1` [compound 89], the IC50 (Homo sapiens, MV4-11, 168 h) was below 50 nM.

The molecule `C=CC(=O)Nc1cc(S(=O)(=O)c2ccc(N3CC(F)(CN4CCC([C@@](CN5CCC5)(c5cccc(F)c5)[C@H]5CCC[C@@H]5NC(=O)OC)CC4)C3)c(F)c2)ccc1F` [compound 90] displayed an IC50 (Homo sapiens, MV4-11, 168 h) below 50 nM. On the same count and under the same terms, under `C=CC(=O)N1CC(S(=O)(=O)c2ccc(N3CC(F)(CN4CCC([C@@](CN5CCC5)(c5cccc(F)c5)[C@H]5CCC[C@@H]5NC(=O)OC)CC4)C3)c(F)c2)C1` [compound 93] stands below 50 nM; under `COC(=O)N[C@H]1CCC[C@@H]1[C@](CN1CCC1)(c1cccc(F)c1)C1CCN(CC2(F)CN(c3ccc(S(=O)(=O)C4CN(C(=O)/C=C/CN(C)C)C4)cc3F)C2)CC1` [compound 96], below 10 nM. Same read-out and setting: then `C=CC(=O)Nc1cc(S(=O)(=O)c2ccc(N3CC(F)(CN4CCC([C@@](CN5CCC5)(c5cccc(F)c5)[C@H]5CCC[C@@H]5NC(=O)OC)CC4)C3)c(F)c2)ccc1C` [compound 97], with below 10 nM. The molecule `COC(=O)N[C@H]1CCC[C@@H]1[C@](CN1CCC1)(c1cccc(F)c1)C1CCN(CC2CN(c3ccc(S(=O)(=O)C4CN(C(=O)/C=C/CN5CCC(O)CC5)C4)cc3)C2)CC1` [compound 98] yielded an IC50 (Homo sapiens, MV4-11, 168 h) below 10 nM.

Turning to `C#CC(=O)N1CC(S(=O)(=O)c2ccc(N3CC(F)(CN4CCC([C@@](CN5CCC5)(c5cccc(F)c5)[C@H]5CCC[C@@H]5NC(=O)OC)CC4)C3)c(F)c2)C1` [compound 101], under “Homo sapiens, MV4-11, 168 h”, the IC50 is below 500 nM. For the molecule `C=CC(=O)Nc1cccc(S(=O)(=O)c2ccc(N3CC[C@@H](CN4CCC([C@@](CN5CCC5)(c5cccc(F)c5)[C@H]5CCC[C@@H]5NC(=O)OC)CC4)C3)cc2)c1` [compound 104], the IC50 (Homo sapiens, MV4-11, 168 h) is below 100 nM. Regarding `C=CC(=O)N1CCCC(S(=O)(=O)c2ccc(N3CC(F)(CN4CCC([C@@](CN5CCC5)(c5cccc(F)c5)[C@H]5CCC[C@@H]5NC(=O)OC)CC4)C3)c(F)c2)C1` (stereo partly shown) [compound 105], where the note is “Homo sapiens, MV4-11, 168 h”, the IC50 was below 50 nM. Turning to `C=CC(=O)N1CCCC(S(=O)(=O)c2ccc(N3CC(F)(CN4CCC([C@@](CN5CCC5)(c5cccc(F)c5)[C@H]5CCC[C@@H]5NC(=O)OC)CC4)C3)c(F)c2)C1` (stereo partly shown) [compound 106], the IC50 was below 50 nM. Same read-out and setting: under `C=CC(=O)N1CCC(S(=O)(=O)c2ccc(N3CC(F)(CN4CCC([C@@](CN5CCC5)(c5cccc(F)c5)[C@H]5CCC[C@@H]5NC(=O)OC)CC4)C3)c(F)c2)C1` (stereo partly shown) [compound 107] stands below 500 nM; under `C=CC(=O)N1CCC(S(=O)(=O)c2ccc(N3CC(F)(CN4CCC([C@@](CN5CCC5)(c5cccc(F)c5)[C@H]5CCC[C@@H]5NC(=O)OC)CC4)C3)c(F)c2)C1` (stereo partly shown) [compound 108], below 100 nM. In the case of `CC#CC(=O)N1CCCC(S(=O)(=O)c2ccc(N3CC(F)(CN4CCC([C@@](CN5CCC5)(c5cccc(F)c5)[C@H]5CCC[C@@H]5NC(=O)OC)CC4)C3)c(F)c2)C1` (stereo partly shown) [compound 109], the IC50 (Homo sapiens, MV4-11, 168 h) was below 50 nM.

For `COC(=O)N[C@H]1CCC[C@@H]1[C@](CN1CCC1)(c1cccc(F)c1)C1CCN(CC2(F)CN(c3ccc(S(=O)(=O)C4CCCN(C(=O)/C=C/CN5CCCCC5)C4)cc3F)C2)CC1` (stereo partly shown) [compound 110], the IC50 (Homo sapiens, MV4-11, 168 h) was below 100 nM. `C#CC(=O)N1CCCC(S(=O)(=O)c2ccc(N3CC(F)(CN4CCC([C@@](CN5CCC5)(c5cccc(F)c5)[C@H]5CCC[C@@H]5NC(=O)OC)CC4)C3)c(F)c2)C1` (stereo partly shown) [compound 111] came in with a half-maximal inhibitory concentration (IC50) (Homo sapiens, MV4-11, 168 h) below 500 nM. The molecule `C=CC(=O)N1CCCC(S(=O)(=O)c2ccc(N3CC(C)(CN4CCC([C@@](CN5CCC5)(c5cccc(F)c5)[C@H]5CCC[C@@H]5NC(=O)OC)CC4)C3)c(F)c2)C1` (stereo partly shown) [compound 113] had an IC50 (Homo sapiens, MV4-11, 168 h) below 50 nM. For `CC#CC(=O)N1CCCC(S(=O)(=O)c2ccc(N3CC(F)(CN4CCC([C@@](CN5CCC5)(c5cccc(F)c5)[C@H]5CCC[C@@H]5NC(=O)OC)CC4)C3)c(F)c2)C1` (stereo partly shown) [compound 114], the IC50 is below 50 nM. Under “Homo sapiens, MV4-11, 168 h”, `CC#CC(=O)N1CC[C@@H](S(=O)(=O)c2ccc(N3CC(F)(CN4CCC([C@@](CN5CCC5)(c5cccc(F)c5)[C@H]5CCC[C@@H]5NC(=O)OC)CC4)C3)c(F)c2)C1` [compound 115] yielded an IC50 below 50 nM. As for `CCOC(=O)/C=C/CNC(=O)c1cccc(S(=O)(=O)c2ccc(N3CC(F)(CN4CCC([C@@](CN5CCC5)(c5cccc(F)c5)[C@H]5CCC[C@@H]5NC(=O)OC)CC4)C3)cc2)c1` [compound 119], the IC50 (Homo sapiens, MV4-11, 168 h) is below 100 nM. `COC(=O)N[C@H]1CCC[C@@H]1[C@](CN1CCC1)(c1cccc(F)c1)C1CCN(CC2(F)CN(c3ccc(S(=O)(=O)c4cccc(C(=O)NC/C=C/S(C)(=O)=O)c4)cc3)C2)CC1` [compound 120] came in with an IC50 (Homo sapiens, MV4-11, 168 h) below 10 nM.

`COC(=O)N[C@H]1CCC[C@@H]1[C@](CN1CCC1)(c1cccc(F)c1)C1CCN(CC2(F)CN(c3ccc(S(=O)(=O)C4CCCN(C(=O)C#CCO)C4)cc3F)C2)CC1` (stereo partly shown) [compound 121]: where the note is “Homo sapiens, MV4-11, 168 h”, the IC50 was below 100 nM. `COC(=O)N[C@H]1CCC[C@@H]1[C@](CN1CCC1)(c1cccc(F)c1)C1CCN(CC2(F)CN(c3ccc(S(=O)(=O)C4CCCN(C(=O)NC/C=C/S(C)(=O)=O)C4)cc3F)C2)CC1` (stereo partly shown) [compound 123]: the IC50 (Homo sapiens, MV4-11, 168 h) is below 10 nM. As to `COC(=O)N[C@H]1CCC[C@@H]1[C@](CNC(C)=O)(c1cccc(F)c1)C1CCN(CC2CN(c3ccc(S(=O)(=O)C4CN(C(=O)/C=C/CN5CCCCC5)C4)cc3)C2)CC1` [compound 129], the IC50 (Homo sapiens, MV4-11, 168 h) is below 10 nM.

Values taken from US20210115018A1, “PIPERIDINE COMPOUNDS AS COVALENT MENIN INHIBITORS” (THE REGENTS OF THE UNIVERSITY OF MICHIGAN, priority 2018, published 2021).
